The test system of test [1] is replicating M. tuberculosis H37Rv. The test can be described thus: microbe, parasite or virus in culture. The conditions noted are these: None = inhibition did not reach 90%; for IC90: Mycobacterium tuberculosis, H37RV, read-out: Against Replicating Mtb IC90 (uM, GFP). Format: cell-based.
For test [2], the system named is carbon-starved M. tuberculosis H37Rv. The test is described as follows: Non-replicating IC90 determination by luciferase (carbon-starved cells). The conditions noted are these: luciferase; for Against carbon starved non-replicating Mtb IC99 (uM, luciferase) / IC99: None = inhibition did not reach 99%; for IC99 / IC90: Mycobacterium tuberculosis, H37RV; for IC99: 120 h, read-out: Against carbon starved non-replicating Mtb IC99 (uM, luciferase); for IC90: IC90 given in brackets beside IC99, read-out: Against carbon starved non-replicating Mtb IC90 (in brackets, luciferase). Format: cell-based.

For `c1cc(-c2nnc(SCCC3OCCCO3)o2)ccn1`, the IC90 (as a rule, the concentration needed for an effect of 90%) in test [1] is above 500 µM. The “Against carbon starved non-replicating Mtb IC99 (uM, luciferase)” value in test [2] was “None”.
Turning to `C#CCSc1nnc(-c2ccc(Cl)cc2)o1`, in test [1], the IC90 stood at 31 µM. Also, the IC99 – broadly, the point of the concentration-response curve where the effect stands at 99% – in test [2] turned out to be 16 µM.
For `Clc1ccc(-c2nnc(NCc3ccccn3)o2)cc1`, in that order: 500 µM and 125 µM.
Turning to `Cc1ccc(-c2nnc(SCc3ccccn3)o2)cc1`, in test [1], the IC90 turned out to be 31 µM. Besides, the IC99 in test [2] was 16 µM.
The corresponding values for `COCCSc1nnc(-c2ccncc2)o1` are above 500 µM and 500 µM.
With `COc1ccc(CSc2nnc(-c3ccc(Cl)cc3)o2)nc1` [drawing 228], in test [1], the IC90 amounted to 31 µM. Besides, the IC99 in test [2] came out at 8 µM.
The corresponding values for `c1ccc(-c2nnc(SCc3ccncc3)o2)cc1` [drawing 179] are 250 µM and 500 µM.
Consider `Fc1ccc(-c2nnc(SCCN3CCN(c4ccccc4)CC3)o2)cc1`, for which the IC90 amounted to 250 µM in test [1] and 4 µM in test [2]. The “Against carbon starved non-replicating Mtb IC99 (uM, luciferase)” value in test [2] is “None”.
With `COc1ccccc1-c1nnc(SCc2ccccn2)o1`, the “Against Replicating Mtb IC90 (uM, GFP)” value in test [1] was “None”. In addition, the IC99 in test [2] turned out to be 125 µM.
Regarding `[O-][n+]1ccccc1CSc1nnc(-c2ccccc2)o1` [drawing 194], the IC90 in test [1] is 62 µM. Moreover, in test [2], the IC99 is 125 µM.
As to `CSc1nnc(-c2ccccc2)o1`, the IC90 in test [1] was above 250 µM. Moreover, the “Against carbon starved non-replicating Mtb IC99 (uM, luciferase)” value in test [2] is recorded as “None”.
Regarding `COCCSc1nnc(-c2cccnc2)o1`, the IC90 in test [1] was above 500 µM. The “Against carbon starved non-replicating Mtb IC99 (uM, luciferase)” value in test [2] is “None”.
For `COCCSc1nnc(-c2ccc(C)cc2)o1`, in test [1], the IC90 came out at 31 µM. In addition, the IC99 in test [2] is 31 µM.
Regarding `OCCn1cc(CSc2nnc(-c3ccc(Cl)cc3)o2)nn1`, the IC90 in test [1] stood at 62 µM. Moreover, the IC99 in test [2] turned out to be 31 µM.
As to `CCOC(=O)COc1ccc(-c2nnc(SCc3ccccn3)o2)cc1`, the “Against Replicating Mtb IC90 (uM, GFP)” value in test [1] is recorded as “None”. Further, the IC99 in test [2] was 31 µM.
For the molecule `CCOC(=O)CSc1nnc(-c2ccccc2)o1`, in test [1], the IC90 worked out at 500 µM. Moreover, the IC99 in test [2] was determined as 250 µM.
For `Fc1ccc(CSc2nnc(-c3cccnc3)o2)cc1`, the IC90 in test [1] was above 500 µM. Besides, the 99% effect concentration (IC99) in test [2] came to 62 µM.
The corresponding values for `[N-]=[N+]=NCCCOc1ccc(C[S+]([O-])c2nnc(-c3ccc(F)cc3)o2)nc1` (centres unmarked) are 31 µM and 4 µM.
In the case of `[N-]=[N+]=NCCOCCNC(=O)CCCOc1ccc(CSc2nnc(-c3ccc(Cl)cc3)o2)nc1` [drawing 237], in test [1], the IC90 came out at 62 µM. The IC99 in test [2] was determined as 62 µM.
`Fc1ccc(-c2nnc(SCCN3CCC(F)(F)CC3)o2)cc1`: in test [1], the “Against Replicating Mtb IC90 (uM, GFP)” value was “None”. Besides, in test [2], the IC90 came to 1 µM and the “Against carbon starved non-replicating Mtb IC99 (uM, luciferase)” value was “None”.
Take `COC(=O)c1ccc(CSc2nnc(-c3ccc(Cl)cc3)o2)nc1`: in test [1], the “Against Replicating Mtb IC90 (uM, GFP)” value is recorded as “None”. Also, in test [2], the IC99 turned out to be 16 µM.
`COc1ccc(C[S+]([O-])c2nnc(-c3ccc(F)cc3)o2)nc1` (centres unmarked): in test [1], the IC90 amounted to 31 µM.
Consider `CS(=O)(=O)c1nnc(-c2ccc(Cl)cc2)o1`, for which the IC90 in test [1] was found to be 125 µM. The IC99 in test [2] amounted to 8 µM.
For `C#CCCCOc1ccc(CSc2nnc(-c3ccc(F)cc3)o2)nc1`, in that order: 31 µM and 16 µM.
`C#CCCCOc1cccc(-c2nnc(SCc3ccccn3)o2)c1`: the “Against Replicating Mtb IC90 (uM, GFP)” value in test [1] is listed as “None”. Moreover, in test [2], the IC99 worked out at 16 µM.
On to `COC(=O)c1ccc(C[S+]([O-])c2nnc(-c3ccc(Cl)cc3)o2)nc1` (centres unmarked), for which the IC90 in test [1] was found to be 125 µM. Further, the IC99 in test [2] came out at 4 µM.
The corresponding values for `COCCSc1nnc(-c2ccccc2)o1` [drawing 175] are 125 µM and 16 µM.
The corresponding values for `Fc1ccc(CCSc2nnc(-c3ccccc3)o2)cc1` are 250 µM and 250 µM.
For `CN1CCCCC1COc1nnc(-c2ccc(Cl)cc2)o1` (centres unmarked), in that order: above 500 µM and 500 µM.
Take `c1ccc(CSc2nnc(-c3cccnc3)o2)nc1`: in test [1], the IC90 was above 500 µM. In test [2], the IC99 turned out to be 250 µM.
Take `c1ccc(-c2nnc(OCc3ccccn3)o2)cc1`: the IC90 in test [1] is above 500 µM. Moreover, the “Against carbon starved non-replicating Mtb IC99 (uM, luciferase)” value in test [2] is reported as “None”.
Turning to `C#CCCCOc1cc(-c2nnc(SCc3ccccn3)o2)ccc1OC`, the “Against Replicating Mtb IC90 (uM, GFP)” value in test [1] is reported as “None”. For the same molecule, in test [2], the IC99 was found to be 16 µM.
As to `CCSc1nnc(-c2ccccc2)o1`, the IC90 in test [1] is 200 µM. Moreover, the IC99 in test [2] is 250 µM.
For `Brc1ccc(-c2nnc(SCc3ccccn3)o2)cc1` [drawing 212], in test [1], the IC90 worked out at 31 µM. Also, in test [2], the IC99 came out at 8 µM.
For `OCC#CCSc1nnc(-c2ccc(Cl)cc2)o1`, in that order: 62 µM and 8 µM.
With `[O-][S+](Cc1ccccc1)c1nnc(-c2ccccc2)o1` (centres unmarked) [drawing 213], the IC90 in test [1] came out at 125 µM. In test [2], the IC99 is 4 µM.
As for `C#CCCCOc1cc(-c2nnc(SCc3ccccn3)o2)ccc1F`, the “Against Replicating Mtb IC90 (uM, GFP)” value in test [1] is “None”. In test [2], the IC99 worked out at 64 µM and the IC90 was determined as 4 µM.
In the case of `c1ccc(-c2nnc(SCc3cccnc3)o2)cc1` [drawing 178], the IC90 in test [1] is 125 µM. For the same molecule, the IC99 in test [2] turned out to be 250 µM.
For `C#CCCCOc1ccc(C[S+]([O-])c2nnc(-c3ccc(F)cc3)o2)nc1` (centres unmarked), in that order: 31 µM and 31 µM.
For `[O-][S+](Cc1ccccn1)c1nnc(-c2ccc(Cl)cc2)o1` (centres unmarked) [drawing 195], in that order: 31 µM and 4 µM.
For `COC(=O)CCCOc1ccc(-c2nnc(SCc3ccccn3)o2)cc1`, in that order: 500 µM and 250 µM.
With `COCC[S+]([O-])c1nnc(-c2ccc(Cl)cc2)o1` (centres unmarked) [drawing 196], in test [1], the IC90 was found to be 31 µM. For the same molecule, the IC99 in test [2] was found to be 31 µM.
On to `[N-]=[N+]=NOCCNC(=O)CCCOc1ccc(-c2nnc([S+]([O-])Cc3ccccn3)o2)cc1` (centres unmarked), for which the IC90 in test [1] came to 125 µM. In addition, the IC99 in test [2] amounted to 62 µM.
Consider `Oc1cccc(-c2nnc(SCc3ccccn3)o2)c1`, for which the IC90 in test [1] amounted to 125 µM. The IC99 in test [2] is 62 µM.
As to `Fc1ccc(CSc2nnc(-c3ccccc3)o2)cc1` [drawing 172], in test [1], the concentration for an effect of 90% (IC90) is 125 µM. The “Against carbon starved non-replicating Mtb IC99 (uM, luciferase)” value in test [2] is “None”.
Regarding `Clc1ccc(-c2nnc(SCc3cn(Cc4ccccc4)nn3)o2)cc1` [drawing 224], the “Against Replicating Mtb IC90 (uM, GFP)” value in test [1] is recorded as “None”. The IC99 in test [2] came to 16 µM.
With `[N-]=[N+]=NCCOCCNC(=O)CCCOc1ccc(C[S+]([O-])c2nnc(-c3ccc(Cl)cc3)o2)nc1` (centres unmarked) [drawing 240], the IC90 in test [1] was 250 µM. In addition, the IC99 in test [2] is 16 µM.
With `Cc1ccc(-c2nnc([S+]([O-])Cc3cccc[n+]3[O-])o2)cc1` (centres unmarked), the IC90 in test [1] worked out at 125 µM. In test [2], the IC99 worked out at 62 µM.
The corresponding values for `Cc1cccc(CSc2nnc(-c3ccc(Cl)cc3)o2)n1` are 62 µM and 31 µM.
Turning to `COc1cc(-c2nnc(SCc3ccccn3)o2)ccc1F`, in test [1], the “Against Replicating Mtb IC90 (uM, GFP)” value is reported as “None”. Moreover, the 99% effect concentration (IC99) in test [2] worked out at 16 µM.
With `Fc1ccc(CSc2nnc(-c3ccc(Cl)cc3)o2)cc1`, the IC90 in test [1] is above 500 µM. In addition, the “Against carbon starved non-replicating Mtb IC99 (uM, luciferase)” value in test [2] is “None”.
On to `c1ccc(-c2nnc(SC3CCCCC3)o2)cc1` [drawing 181], for which the IC90 in test [1] is above 500 µM. The IC99 in test [2] worked out at 62 µM.
With `c1ccc(-c2nnc(SCCC3OCCCO3)o2)cc1` [drawing 168], the IC90 in test [1] stood at 125 µM. Moreover, the IC99 in test [2] is 62 µM.
For `c1ccc(CSc2nnc(-c3ccncc3)o2)nc1`, in that order: above 500 µM and 500 µM.
The corresponding values for `Clc1ccc(-c2nnc(SCCC3OCCCO3)o2)cc1` are 62 µM and 8 µM.
For `Fc1ccc(-c2nnc(SCc3ccccn3)o2)cc1` [drawing 215], in that order: 31 µM and 62 µM.
`[N-]=[N+]=NCCOCCNC(=O)CCCn1cc(C[S+]([O-])c2nnc(-c3ccc(F)cc3)o2)nn1` (centres unmarked): in test [1], the IC90 came to 500 µM. In test [2], the IC99 was determined as 500 µM and the IC90 amounted to 125 µM.
Take `c1cncc(-c2nnc(SCCC3OCCCO3)o2)c1`: in test [1], the IC90 is above 500 µM. The “Against carbon starved non-replicating Mtb IC99 (uM, luciferase)” value in test [2] is recorded as “None”.
As for `Fc1cccc(-c2nnc(SCc3ccccn3)o2)c1` [drawing 216], the IC90 in test [1] amounted to 31 µM. In test [2], the IC99 was 16 µM.
The corresponding values for `[N-]=[N+]=NCCCOc1ccc(CSc2nnc(-c3ccc(F)cc3)o2)nc1` are 31 µM and 16 µM.
Regarding `Oc1ccc(-c2nnc(SCc3ccccn3)o2)cc1`, in test [1], the IC90 was determined as 125 µM. In addition, in test [2], the IC99 was 62 µM.
For the molecule `Clc1ccc(-c2nnc(OCc3ccccn3)o2)cc1`, the IC90 in test [1] is 250 µM. Besides, the IC99 in test [2] came to 250 µM.
For the molecule `Fc1ccc(-c2nnc(SCCN3CCCC(F)(F)C3)o2)cc1`, the IC90 in test [1] was 250 µM. Besides, in test [2], the IC99 turned out to be 250 µM and the IC90 worked out at 1 µM.
For `COC(=O)CCCOc1ccc(CSc2nnc(-c3ccc(F)cc3)o2)nc1`, the IC90 in test [1] worked out at 125 µM. Moreover, in test [2], the IC99 was 31 µM.
For `[O-][S+](Cc1cn(Cc2ccccc2)nn1)c1nnc(-c2ccc(Cl)cc2)o1` (centres unmarked) [drawing 223], in that order: 62 µM and 8 µM.
For `COCCS(=O)(=O)c1nnc(-c2ccc(Cl)cc2)o1`, in that order: above 500 µM and 250 µM.
The corresponding values for `Clc1ccc(-c2nnc(SCc3ccccn3)o2)cc1` are 62 µM and 16 µM.
In the case of `COc1ccc(CSc2nnc(-c3ccc(F)cc3)o2)nc1`, the IC90 in test [1] lay within 16 to 31 µM.
As for `[O-][S+](Cc1ccccn1)c1nnc(-c2ccc(F)cc2)o1` (centres unmarked), the IC90 in test [1] is 31 µM.

For the origin of these results see US10301294B2, “Compounds for the treatment of tuberculosis” (priority 2013, dated 2019).
